For assay [1], the species on record is Homo sapiens. As to the kind of experiment: Selectivity ratio of Ki for human carbonic anhydrase 1 to Ki for human carbonic anhydrase 9.
The species named for assay [2] is Homo sapiens. As to the kind of experiment: Selectivity ratio of Ki for human carbonic anhydrase 2 to Ki for human carbonic anhydrase 9.
Another assay deals with Carbonic anhydrase 9 (Homo sapiens, UniProt Q16790). As to the kind of experiment: Inhibition of human carbonic anhydrase 9 preincubated for 15 mins by CO2 hydration stopped-flow assay.
In the next assay the target is Carbonic anhydrase 2 (Homo sapiens, UniProt P00918). As to the kind of experiment: Inhibition of human carbonic anhydrase 2 preincubated for 15 mins by CO2 hydration stopped-flow assay.

By Ki is commonly meant the dissociation constant of the complex between target and ligand, obtained from inhibition or displacement.

Molecules are shown by their SMILES.

Consider `CC(=O)OC[C@H]1O[C@@H](NS(N)(=O)=O)[C@H](OC(C)=O)[C@@H](OC(C)=O)[C@H]1OC(C)=O`, for which the Ratio Ki was 480 in the assay filed under Homo sapiens [1] and less than 17 in the assay listed under Homo sapiens [2]. On Carbonic anhydrase 9, this compound returned a Ki of 5 nM.

The compound `CC(=O)OC[C@H]1O[C@H](NS(N)(=O)=O)C=C[C@@H]1OC(C)=O` came in with a Ki at Carbonic anhydrase 9 of 9 nM.

Take `C[C@@H]1O[C@@H](NS(N)(=O)=O)[C@@H](O)[C@H](O)[C@H]1O`: the Ratio Ki in the assay listed under Homo sapiens [2] is 7. Besides, the Ki on Carbonic anhydrase 9 worked out at 900 nM.

Turning to `NS(=O)(=O)OC[C@H]1O[C@H](OC[C@H]2[C@H](O)[C@@H](O)[C@H](O)O[C@@H]2CO)[C@H](O)[C@@H](O)[C@@H]1O`, at Carbonic anhydrase 2, the inhibition constant Ki is 11.3 nM.

Turning to `CC(=O)OC[C@H]1O[C@@H](NS(N)(=O)=O)[C@H](OC(C)=O)[C@@H](OC(C)=O)[C@@H]1OC(C)=O`, the values for the Ratio Ki in the assay listed under Homo sapiens [1] and in the assay filed under Homo sapiens [2] were 480 and less than 17, respectively. The affinity at Carbonic anhydrase 9, expressed as Ki, was 5 nM.

As for `CC(=O)OC[C@H]1O[C@@H](NS(N)(=O)=O)[C@@H](OC(C)=O)[C@@H](OC(C)=O)[C@@H]1OC(C)=O`, the Ratio Ki is 480 in the assay filed under Homo sapiens [1] and less than 17 in the assay listed under Homo sapiens [2].
